Drawing on PubChem BioAssay (NCI), this text covers GI50 and TGI for twelve compounds.

Some test systems named below: 786-0 renal; A549 NSCLC; BT-549 breast; HCT-116 colon; HCT-15 colon; MOLT-4 leukemia; OVCAR-3 ovarian; T-47D breast; U251 CNS; UACC-62 melanoma.
Holding throughout (experiment): NCI tumour cell line growth inhibition, 48 h

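Following 48 hours of exposure in 96-well plates, responses at five concentrations were used to interpolate endpoints linearly. GI50: concentration for 50% inhibition of growth. TGI: total growth inhibition.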 A value given as a limit tells only on which side of the number the result lay.

Turning to `O=S(=O)(Nc1ccccn1)c1ccc(N=Nc2ccc(O)c3ncccc23)cc1`, the GI50 in the test with 786-0 renal is 3.42 µM; in the test on A549 NSCLC, 1.65 µM; in the test with BT-549 breast, 1.25 µM; with HCT-116 colon, 0.888 µM; in the test on HCT-15 colon, 0.844 µM; in the test with MOLT-4 leukemia, 1.37 µM. The GI50 in the test with OVCAR-3 ovarian was 1.13 µM; in the test on T-47D breast it was 2.98 µM; with U251 CNS, 0.388 µM; in the test with UACC-62 melanoma it was 0.582 µM. Further, the TGI in the test with 786-0 renal was 13.6 µM; in the test with A549 NSCLC it was 14 µM; in the test on BT-549 breast, 7.04 µM; in the test on HCT-116 colon it was 22.6 µM; in the test with HCT-15 colon it was 15.7 µM; in the test on MOLT-4 leukemia it was over 23.9 µM. The TGI in the test on OVCAR-3 ovarian was determined as 11.4 µM; with T-47D breast it was 8.7 µM; in the test on U251 CNS, 7.04 µM; in the test on UACC-62 melanoma, 3.03 µM.

Consider `CN1CCN(CC(=O)N2c3cccc4cccc(c34)N(C(=O)CN3CCN(C)CC3)C2c2cn(-c3ccccc3)nc2-c2cccc([N+](=O)[O-])c2)CC1`, for which the GI50 was 1.76 µM with 786-0 renal; 3.21 µM with A549 NSCLC; 1.67 µM in the test with BT-549 breast; 1.65 µM in the test with HCT-116 colon; 1.98 µM with HCT-15 colon; 2.21 µM in the test with MOLT-4 leukemia. For the same compound, the GI50 was 1.76 µM in the test on OVCAR-3 ovarian, 1.97 µM in the test with T-47D breast, 1.9 µM in the test on U251 CNS and 1.77 µM in the test with UACC-62 melanoma. For the same compound, the TGI is 3.21 µM in the test with 786-0 renal; 13.2 µM with A549 NSCLC; 3.26 µM in the test with BT-549 breast; 3.1 µM in the test on HCT-116 colon; 4.06 µM with HCT-15 colon; 5.94 µM in the test on MOLT-4 leukemia. Moreover, the TGI worked out at 3.4 µM in the test on OVCAR-3 ovarian, 4.34 µM with T-47D breast, 4 µM in the test on U251 CNS and 3.38 µM in the test with UACC-62 melanoma.

Take `O=C(O)CCSC(=S)Nc1ccc([N+](=O)[O-])cc1`: the TGI in the test with 786-0 renal was over 100 µM; in the test with A549 NSCLC, over 100 µM; in the test with BT-549 breast, over 100 µM; in the test on HCT-116 colon, over 100 µM; in the test on HCT-15 colon, over 100 µM; in the test on MOLT-4 leukemia it was over 68 µM. Moreover, the TGI in the test with OVCAR-3 ovarian is over 87.8 µM; in the test with T-47D breast, over 100 µM; in the test with U251 CNS, over 100 µM; with UACC-62 melanoma, 46.7 µM.

As to `CSC1(CC(=O)N2CCCCC2)C(=O)Nc2ccccc21` (stereo not given), the TGI with 786-0 renal, with A549 NSCLC, with BT-549 breast, in the test with HCT-116 colon, with HCT-15 colon and with MOLT-4 leukemia was over 100 µM in each case. In addition, the TGI with OVCAR-3 ovarian, in the test with T-47D breast, in the test with U251 CNS and in the test on UACC-62 melanoma was over 100 µM in each case.

Consider `COc1cc2c3c(n(CCCN4CCCC(O)C4)c(=O)c2cc1OC)-c1cc2c(cc1C3=O)OCO2` (stereo not given), for which the GI50 with 786-0 renal is 0.0277 µM; in the test on A549 NSCLC, 0.642 µM; with BT-549 breast it was 0.898 µM; in the test with HCT-116 colon, 0.0157 µM; in the test with HCT-15 colon, 0.709 µM; in the test with MOLT-4 leukemia, under 0.005 µM. Further, the GI50 is 2.14 µM in the test with OVCAR-3 ovarian, 1.16 µM in the test with T-47D breast, 0.00633 µM with U251 CNS and 5.01 µM in the test with UACC-62 melanoma. Moreover, the TGI with 786-0 renal was 0.115 µM; with A549 NSCLC, 1.51 µM; with BT-549 breast it was 3.21 µM; in the test on HCT-116 colon, 0.925 µM; in the test on HCT-15 colon, 1.7 µM; in the test on MOLT-4 leukemia, 0.678 µM. The TGI turned out to be 4.71 µM with OVCAR-3 ovarian, 3.2 µM in the test with T-47D breast, 0.854 µM in the test on U251 CNS and 12.8 µM with UACC-62 melanoma.

For the compound `CC[CH2][Sn]([CH2]CC)([O]C(=O)Cc1ccc(F)cc1)[O][Sn]([CH2]CC)([CH2]CC)[O]C(=O)Cc1ccc(F)cc1`, the GI50 in the test on 786-0 renal is 0.133 µM; in the test on A549 NSCLC, 1.88 µM; in the test on BT-549 breast it was 0.256 µM; with HCT-116 colon, 0.218 µM; with HCT-15 colon, 0.218 µM; in the test with MOLT-4 leukemia, 0.0614 µM. Moreover, the GI50 with OVCAR-3 ovarian is 0.431 µM; in the test on T-47D breast, 0.0296 µM; in the test on U251 CNS it was 0.131 µM; with UACC-62 melanoma it was 0.172 µM. Also, the TGI worked out at 0.361 µM in the test on 786-0 renal; 4.71 µM in the test on A549 NSCLC; 0.92 µM in the test on BT-549 breast; 0.796 µM in the test with HCT-116 colon; 0.658 µM with HCT-15 colon; 9.15 µM in the test on MOLT-4 leukemia. In addition, the TGI in the test with OVCAR-3 ovarian turned out to be 1.27 µM; with T-47D breast, 0.211 µM; with U251 CNS, 0.431 µM; with UACC-62 melanoma, 0.524 µM.

Take `Cc1cc(N(CCOS(C)(=O)=O)CCOS(C)(=O)=O)ccc1C=Nc1ccc(-c2csc(-c3ccc(Br)cc3)n2)cc1`: the TGI was 20.7 µM in the test on 786-0 renal; 53.1 µM in the test with A549 NSCLC; over 76.4 µM with BT-549 breast; over 87.9 µM with HCT-116 colon; 50.3 µM with HCT-15 colon; over 69.5 µM with MOLT-4 leukemia. In addition, the TGI with OVCAR-3 ovarian came out at 44.3 µM; in the test on T-47D breast, 80.1 µM; in the test on U251 CNS it was 60.5 µM; in the test with UACC-62 melanoma, 22.3 µM.

Regarding `Oc1c(CN2CCN(c3ccccc3F)CC2)cc(Br)c2cccnc12`, the GI50 in the test on 786-0 renal was 2.42 µM; in the test on A549 NSCLC, 0.546 µM; in the test on BT-549 breast, 2.02 µM; with HCT-116 colon, 0.546 µM; with HCT-15 colon, 0.143 µM; in the test with MOLT-4 leukemia, 0.743 µM. For the same compound, the GI50 in the test on OVCAR-3 ovarian was 0.576 µM; with T-47D breast, 0.565 µM; with U251 CNS, 0.529 µM; with UACC-62 melanoma, 0.631 µM. The TGI is 12.6 µM in the test with 786-0 renal; 13 µM in the test on A549 NSCLC; over 100 µM in the test with BT-549 breast; over 40.7 µM in the test on HCT-116 colon; over 100 µM in the test with HCT-15 colon; 5.92 µM in the test with MOLT-4 leukemia. The TGI in the test on OVCAR-3 ovarian stood at 21.2 µM; with T-47D breast, 60.5 µM; in the test on U251 CNS, 11.1 µM; with UACC-62 melanoma, 4.09 µM.

With `C[C@@H]1OCC2(CCN(c3cnc(Sc4ccnc(N)c4Cl)c(N)n3)CC2)[C@@H]1N`, the GI50 with 786-0 renal was 98.6 µM; with A549 NSCLC, over 100 µM; in the test on BT-549 breast it was 34.6 µM; in the test on HCT-116 colon it was over 100 µM; in the test on HCT-15 colon it was over 100 µM; in the test on MOLT-4 leukemia, over 90.9 µM. Besides, the GI50 is over 100 µM with OVCAR-3 ovarian, 46.3 µM in the test with T-47D breast, 9.48 µM in the test on U251 CNS and over 100 µM with UACC-62 melanoma. The TGI in the test with 786-0 renal, with A549 NSCLC, with BT-549 breast, with HCT-116 colon, in the test on HCT-15 colon and in the test on MOLT-4 leukemia was over 100 µM throughout. For the same compound, the TGI in the test with OVCAR-3 ovarian, in the test with T-47D breast, in the test with U251 CNS and in the test on UACC-62 melanoma was over 100 µM in each case.

On to `Clc1ccc2c(NCCNc3nc(N4CCCC4)nc4ccccc34)ccnc2c1`, for which the GI50 in the test on 786-0 renal is 1.17 µM; with A549 NSCLC, 0.29 µM; in the test with BT-549 breast, 2.01 µM; in the test with HCT-116 colon it was 0.309 µM; in the test with HCT-15 colon it was 0.254 µM; with MOLT-4 leukemia it was 0.538 µM. The GI50 in the test with OVCAR-3 ovarian is 0.492 µM; in the test on T-47D breast, 1.6 µM; in the test with U251 CNS it was 1.49 µM; with UACC-62 melanoma it was 1.8 µM. Besides, the TGI was determined as 3.18 µM in the test with 786-0 renal; 2.54 µM in the test on A549 NSCLC; 4.98 µM in the test with BT-549 breast; 1.02 µM in the test with HCT-116 colon; 2.92 µM with HCT-15 colon; 5.1 µM in the test with MOLT-4 leukemia. The TGI in the test with OVCAR-3 ovarian was 1.07 µM; in the test with T-47D breast it was 3.99 µM; in the test on U251 CNS it was 3.15 µM; in the test with UACC-62 melanoma it was 3.5 µM.

Consider `CCCCCC/C=C1\CCC(CN(C)C)C1=O` (stereo not given), for which the TGI with 786-0 renal was 3.99 µM; in the test on A549 NSCLC, 36.9 µM; with BT-549 breast, 53.1 µM; in the test on HCT-116 colon, 9.55 µM; in the test with HCT-15 colon, 6.61 µM; in the test on MOLT-4 leukemia it was 18.7 µM. The TGI in the test with OVCAR-3 ovarian turned out to be 17.7 µM; in the test with T-47D breast, 9.81 µM; in the test with U251 CNS it was 9.47 µM; with UACC-62 melanoma it was 14.9 µM.

On to `Fc1cccc(-c2[nH]nc3nc(Nc4cccnc4)sc23)c1`, for which the GI50 was over 100 µM in the test with 786-0 renal; 4.18 µM in the test on A549 NSCLC; 14.9 µM with BT-549 breast; 0.595 µM with HCT-116 colon; 0.948 µM with HCT-15 colon; 9.13 µM in the test on MOLT-4 leukemia. In addition, the GI50 is 1.68 µM in the test with OVCAR-3 ovarian, 8.69 µM in the test with T-47D breast, 1.01 µM in the test on U251 CNS and over 100 µM in the test with UACC-62 melanoma. Further, the TGI in the test with 786-0 renal was over 100 µM; in the test with A549 NSCLC, over 100 µM; in the test with BT-549 breast it was 47 µM; with HCT-116 colon, 51.1 µM; in the test with HCT-15 colon, over 100 µM; with MOLT-4 leukemia, over 100 µM. Also, the TGI with OVCAR-3 ovarian was 13.5 µM; in the test with T-47D breast it was over 100 µM; with U251 CNS, over 100 µM; in the test with UACC-62 melanoma it was over 100 µM.
